Data published in patent publication US9199947B2, “Biaryl-propionic acid derivatives and their use as pharmaceuticals” (SANOFI, priority 2013, dated 2015).

Target: Recombinant human cathepsin A (Homo sapiens (Human), UniProt P10619)
Experiment: Cathepsin A inhibitory activity (Bodipy FL-labeled bradykinin substrate, microfluidic capillary electrophoresis)
Assay type: biochemical
Conditions: Cathepsin A inhibitory activity, read-out: CATHA IC50
Protocol: Pharmacological Tests a) Cathepsin a Inhibitory Activity
Recombinant human cathepsin A (residues 29-480, with a C-terminal 10-His tag; R&D Systems, #1049-SE) was proteolytically activated with recombinant human cathepsin L (R&D Systems, #952-CY). Briefly, cathepsin A was incubated at 10 μg/ml with cathepsin L at 1 μg/ml in activation buffer (25 mM 2-(morpholin-4-yl)-ethanesulfonic acid (MES), pH 6.0, containing 5 mM dithiothreitol (DTT)) for 15 min at 37° C.
The activated cathepsin A was diluted in assay buffer (25 mM MES, pH 5.5, containing 5 mM DTT) and mixed with the test compound (dissolved in assay buffer containing (v/v) 3% DMSO) or, in the control experiments, with the vehicle in a multiple assay plate. After incubation for 15 min at room temperature, as substrate then bradykinin carrying an N-terminal® Bodipy FL (4,4-difluoro-5,7-dimethyl-4-bora-3a,4a-diaza-s-indacene-3-propionyl) label (JPT Peptide Technologies GmbH; dissolved in assay buffer) was added to the mixture. The final concentration of cathepsin A was 833 ng/ml and the final concentration of labeled bradykinin 2 μM. After incubation for 15 min at room temperature the reaction was stopped by the addition of stop buffer (130 mM 2-(4-(2-hydroxy-ethyl)-piperazin-1-yl)-ethanesulfonic acid, pH 7.4, containing (v/v) 0.013%° Triton X-100, 0.13% Coating Reagent 3 (Caliper Life Sciences), 6.5% DMSO and 20 μM ebelactone B (Sigma, #E0886)).
Uncleaved substrate and product were then separated by a microfluidic capillary electrophoresis on a LabChip® 3000 Drug Discovery System (12-Sipper-Chip; Caliper Life Sciences) and quantified by determination of the respective peak areas. Substrate turnover was calculated by dividing product peak area by the sum of substrate and product peak areas, and the enzyme activity and the inhibitory effect of the test compound thus quantified.

Chain of Recombinant human cathepsin A (P10619 29-326): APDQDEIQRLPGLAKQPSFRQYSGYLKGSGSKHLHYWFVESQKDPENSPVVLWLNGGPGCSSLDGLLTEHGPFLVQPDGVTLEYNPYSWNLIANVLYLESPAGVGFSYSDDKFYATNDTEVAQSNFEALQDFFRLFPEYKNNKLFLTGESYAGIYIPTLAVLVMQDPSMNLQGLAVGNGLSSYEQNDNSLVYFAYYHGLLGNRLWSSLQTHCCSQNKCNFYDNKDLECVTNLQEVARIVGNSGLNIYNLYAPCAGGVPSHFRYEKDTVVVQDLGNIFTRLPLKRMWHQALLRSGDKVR
Chain of Recombinant human cathepsin A (P10619 327-480): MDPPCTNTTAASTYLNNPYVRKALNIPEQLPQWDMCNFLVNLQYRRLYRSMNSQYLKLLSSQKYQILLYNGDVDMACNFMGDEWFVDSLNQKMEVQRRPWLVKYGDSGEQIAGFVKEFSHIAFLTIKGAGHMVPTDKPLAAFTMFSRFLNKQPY

IC50 | SMILES
8650 nM | Cc1cnc(C(CC(=O)O)c2cc(F)cc(-c3ccncc3)c2)s1 (stereo not shown) [compound 139]
4940 nM | COc1ccc(-c2ccccc2)cc1C(CC(=O)O)c1nccs1 (stereo not shown) [compound 168]
1770 nM | NC(=O)c1ccccc1-c1cc(F)cc(C(CC(=O)O)c2ncco2)c1 (stereo not shown) [compound 134]
1700 nM | Cc1cnc(C(CC(=O)O)c2cc(F)cc(-c3ccccc3C(=O)N(C)C)c2)s1 (stereo not shown) [compound 132]
1450 nM | O=C(O)CC(c1cc(F)cc(-c2cccc(F)c2F)c1)c1ncco1 (stereo not shown) [compound 129]
1160 nM | Cc1ccc(-c2cc(F)cc(C(CC(=O)O)c3ncco3)c2)c(F)c1 (stereo not shown) [compound 125]
975 nM | Cc1cnc(C(CC(=O)O)c2cc(F)cc(-c3cccc(OC(F)(F)F)c3)c2)s1 (stereo not shown) [compound 124]
1560 nM | Cc1cnc(C(CC(=O)O)c2cc(Cl)cc(-c3ccncc3F)c2)s1 (stereo not shown) [compound 117]
1440 nM | Cc1cnc(C(CC(=O)O)c2cc(Cl)cc(-c3ccccc3C(=O)N(C)C)c2)s1 (stereo not shown) [compound 116]
935 nM | Cc1nnc(C(CC(=O)O)c2cccc(-c3ccccc3)c2)o1 (stereo not shown) [compound 167]
6710 nM | Cc1nnc(C(CC(=O)O)c2cccc(-c3cccnc3)c2)o1 (stereo not shown) [compound 147]
4740 nM | Cc1nnc(C(CC(=O)O)c2cccc(-c3ccccc3C#N)c2)o1 (stereo not shown) [compound 146]
1690 nM | Cc1cnc(C(CC(=O)O)c2cc(F)cc(-c3ccccc3C#N)c2)s1 (stereo not shown) [compound 131]
1330 nM | Cc1cnc(C(CC(=O)O)c2cc(F)cc(-c3cccnc3)c2)s1 (stereo not shown) [compound 128]
707 nM | CC(=O)c1ccccc1-c1cc(F)cc(C(CC(=O)O)c2ncc(C)s2)c1 (stereo not shown) [compound 121]
1720 nM | CC(=O)c1ccccc1-c1cccc(C(CC(=O)O)c2nnc(C)o2)c1 (stereo not shown) [compound 145]
488 nM | Cc1cccc(-c2cc(F)cc(C(CC(=O)O)c3ncco3)c2)c1F (stereo not shown) [compound 119]

Same assay, conditions: read-out: CATHA IC50

IC50 | SMILES
975 nM | COc1ccc(-c2cc(F)ccc2F)cc1C(CC(=O)O)c1ncc(C)s1 (stereo not shown) [compound 63]
197 nM | Cc1cnc(C(CC(=O)O)c2cc(Cl)cc(-c3cccc(Cl)c3F)c2)s1 (stereo not shown) [compound 103]
2460 nM | O=C(O)CC(c1cccc(-c2cccc(OCC(F)(F)F)c2)c1)c1nccs1 (stereo not shown) [compound 34]
987 nM | O=C(O)CC(c1cccc(-c2ccc3c(c2)OCCO3)c1)c1nccs1 (stereo not shown) [compound 19]
563 nM | COc1ccc(-c2cc(Cl)cc(C(CC(=O)O)c3ncc(C)s3)c2)c(F)c1 (stereo not shown) [compound 113]
7540 nM | Cc1cnc(C(CC(=O)O)c2cccc(-c3cccnc3)c2)s1 (stereo not shown) [compound 58]
335 nM | COc1cc(F)c(-c2cc(Cl)cc(C(CC(=O)O)c3ncc(C)s3)c2)c(F)c1 (stereo not shown) [compound 108]
11600 nM | O=C(O)CC(c1cccc(-c2cccnc2Cl)c1)c1nccs1 (stereo not shown) [compound 41]
1750 nM | O=C(O)CC(c1cccc(-c2ccc(Cl)cc2)c1)c1nccs1 (stereo not shown) [compound 7]
4390 nM | COc1ccc(-c2ccc(F)cc2)cc1C(CC(=O)O)c1ncc(C)s1 (stereo not shown) [compound 84]
2420 nM | N#CCOc1ccc(-c2cccc(C(CC(=O)O)c3nccs3)c2)cc1 (stereo not shown) [compound 32]
989 nM | COc1ccc(-c2cccc(C(CC(=O)O)c3ncc(C)s3)c2)c(F)c1 (stereo not shown) [compound 54]
13700 nM | Cc1cnc(C(CC(=O)O)c2cccc(-c3ccncc3)c2)s1 (stereo not shown) [compound 60]
1650 nM | COc1c(C)cc(-c2cccc(C(CC(=O)O)c3nccs3)c2)cc1C (stereo not shown) [compound 25]
2040 nM | O=C(O)CC(c1cccc(-c2ccccc2Cl)c1)c1nccs1 (stereo not shown) [compound 8]
328 nM | Cc1cnc(C(CC(=O)O)c2cc(Cl)cc(-c3ccccc3F)c2)s1 (stereo not shown) [compound 107]
23600 nM | O=C(O)CC(c1cccc(-c2ccnc(F)c2)c1)c1nccs1 (stereo not shown) [compound 46]
184 nM | Cc1cnc(C(CC(=O)O)c2cc(Cl)cc(-c3cccc(C)c3F)c2)s1 (stereo not shown) [compound 102]
1770 nM | COc1ccc(-c2cccc(F)c2F)cc1C(CC(=O)O)c1ncc(C)s1 (stereo not shown) [compound 69]

IC50 | SMILES
2280 nM | COc1cc(-c2cccc(C(CC(=O)O)c3nccs3)c2)ccc1O (stereo not shown) [compound 29]
3540 nM | Cc1ccccc1-c1cccc(C(CC(=O)O)c2nccs2)c1 (stereo not shown) [compound 12]
7780 nM | Cc1nc(C(CC(=O)O)c2cccc(Br)c2)sc1C (stereo not shown) [compound 2]
588 nM | COc1cccc(-c2cccc(C(CC(=O)O)c3nccs3)c2)c1F (stereo not shown) [compound 17]
6730 nM | COc1ccc(-c2ccc(OC(F)(F)F)cc2)cc1C(CC(=O)O)c1ncc(C)s1 (stereo not shown) [compound 89]
1670 nM | Cc1c(Cl)cccc1-c1cccc(C(CC(=O)O)c2nccs2)c1 (stereo not shown) [compound 6]
2340 nM | COc1ccc(-c2ccccc2F)cc1C(CC(=O)O)c1ncc(C)s1 (stereo not shown) [compound 72]
5680 nM | COc1ccc(-c2cc(C)ccc2F)cc1C(CC(=O)O)c1ncc(C)s1 (stereo not shown) [compound 86]
2300 nM | COc1ccc(-c2cccc(C)c2C)cc1C(CC(=O)O)c1ncc(C)s1 (stereo not shown) [compound 71]
7770 nM | COc1ccc(-c2cccc(C(F)(F)F)c2)cc1C(CC(=O)O)c1ncc(C)s1 (stereo not shown) [compound 91]
7120 nM | COc1ccc(-c2cccc(C)c2)cc1C(CC(=O)O)c1ncc(C)s1 (stereo not shown) [compound 90]
4010 nM | COc1ccc(-c2cccc(F)c2Cl)cc1C(CC(=O)O)c1ncc(C)s1 (stereo not shown) [compound 82]
3280 nM | COc1ccc(-c2ccccc2C)cc1C(CC(=O)O)c1ncc(C)s1 (stereo not shown) [compound 78]
459 nM | Cc1cnc(C(CC(=O)O)c2cc(Cl)cc(-c3ccncc3)c2)s1 (stereo not shown) [compound 112]
1960 nM | COc1ccc(-c2cccc(F)c2)cc1C(CC(=O)O)c1ncc(C)s1 (stereo not shown) [compound 70]
2480 nM | Cc1cccc(-c2cccc(C(CC(=O)O)c3nccs3)c2)c1C (stereo not shown) [compound 9]
1200 nM | COc1ccc(-c2cc(F)ccc2C)cc1C(CC(=O)O)c1ncc(C)s1 (stereo not shown) [compound 64]
7870 nM | O=C(O)CC(c1cccc(-c2ccc(Cl)c(OCc3ccccc3)c2)c1)c1nccs1 (stereo not shown) [compound 38]
1320 nM | COc1cc(F)c(-c2cccc(C(CC(=O)O)c3nccs3)c2)cc1F (stereo not shown) [compound 22]

IC50 | SMILES
7810 nM | COc1ccc(-c2ccc(OC)c(C(CC(=O)O)c3ncc(C)s3)c2)cc1 (stereo not shown) [compound 92]
3570 nM | COc1ccc(-c2ccc(Cl)cc2F)cc1C(CC(=O)O)c1ncc(C)s1 (stereo not shown) [compound 79]
19300 nM | COc1ccc(-c2ccccc2C(N)=O)cc1C(CC(=O)O)c1ncc(C)s1 (stereo not shown) [compound 97]
1590 nM | COc1ccc(-c2ccc(C)cc2)cc1C(CC(=O)O)c1ncc(C)s1 (stereo not shown) [compound 68]
24800 nM | O=C(O)CC(c1cccc(-c2ccncc2F)c1)c1nccs1 (stereo not shown) [compound 47]
19400 nM | O=C(O)CC(c1cccc(-c2ccncc2Cl)c1)c1nccs1 (stereo not shown) [compound 43]
15100 nM | Cn1nccc1-c1cccc(C(CC(=O)O)c2nccs2)c1 (stereo not shown) [compound 42]
5560 nM | COc1cccc(-c2ccc(OC)c(C(CC(=O)O)c3ncc(C)s3)c2)c1 (stereo not shown) [compound 85]
2590 nM | O=C(O)CC(c1cccc(-c2ccccc2)c1)c1nccs1 (stereo not shown) [compound 10]
250 nM | CC(=O)c1ccccc1-c1cc(Cl)cc(C(CC(=O)O)c2ncc(C)s2)c1 (stereo not shown) [compound 106]
6690 nM | COc1ccc(-c2ccccc2Cl)cc1C(CC(=O)O)c1ncc(C)s1 (stereo not shown) [compound 88]
5380 nM | Cc1cnc(C(CC(=O)O)c2cccc(-c3ccccc3C(N)=O)c2)s1 (stereo not shown) [compound 56]
2720 nM | O=C(O)CC(c1cccc(-c2cccc(F)c2Cl)c1)c1nccs1 (stereo not shown) [compound 11]
1310 nM | COc1ccc(-c2cccc(Cl)c2C)cc1C(CC(=O)O)c1ncc(C)s1 (stereo not shown) [compound 67]
406 nM | Cc1cnc(C(CC(=O)O)c2cc(Cl)cc(-c3cccc(OC(F)(F)F)c3)c2)s1 (stereo not shown) [compound 111]
3200 nM | COc1ccc(-c2ccc(Cl)cc2)cc1C(CC(=O)O)c1ncc(C)s1 (stereo not shown) [compound 76]
954 nM | COc1ccc(-c2cccc(Cl)c2F)cc1C(CC(=O)O)c1ncc(C)s1 (stereo not shown) [compound 61]
397 nM | COc1cccc(-c2cccc(C(CC(=O)O)c3ncc(C)s3)c2)c1F (stereo not shown) [compound 51]
